Experiment: xn = mol fraction of the nth substance listed

CCCCCCCC + CCCCCCC
Details | viscosity [mPa·s]
293.15 K, 101 kPa, x2 = 0.2 | 0.511
293.15 K, 101 kPa, x2 = 0.4 | 0.484
293.15 K, 101 kPa, x2 = 0.6 | 0.458
293.15 K, 101 kPa, x2 = 0.8 | 0.433
293.15 K, 101.33 kPa, x2 = 0.07168 | 0.531
293.15 K, 101.33 kPa, x2 = 0.1121 | 0.525
293.15 K, 101.33 kPa, x2 = 0.1909 | 0.514
293.15 K, 101.33 kPa, x2 = 0.2852 | 0.501
293.15 K, 101.33 kPa, x2 = 0.3891 | 0.487
293.15 K, 101.33 kPa, x2 = 0.4993 | 0.473
293.15 K, 101.33 kPa, x2 = 0.5985 | 0.46
293.15 K, 101.33 kPa, x2 = 0.6936 | 0.448
293.15 K, 101.33 kPa, x2 = 0.7797 | 0.437
293.15 K, 101.33 kPa, x2 = 0.8967 | 0.422
293.15 K, 101.33 kPa, x2 = 0.9584 | 0.414
298.15 K, 101.33 kPa, x2 = 0.1073 | 0.4942
298.15 K, 101.33 kPa, x2 = 0.2098 | 0.4774
298.15 K, 101.33 kPa, x2 = 0.406 | 0.4539
298.15 K, 101.33 kPa, x2 = 0.5089 | 0.4431
298.15 K, 101.33 kPa, x2 = 0.6081 | 0.4285
298.15 K, 101.33 kPa, x2 = 0.7052 | 0.4201
298.15 K, 101.33 kPa, x2 = 0.807 | 0.4103
298.15 K, 101.33 kPa, x2 = 0.9012 | 0.3958
303.15 K, 101.33 kPa, x2 = 0.1022 | 0.469
303.15 K, 101.33 kPa, x2 = 0.199 | 0.458
303.15 K, 101.33 kPa, x2 = 0.2324 | 0.454
303.15 K, 101.33 kPa, x2 = 0.3088 | 0.445
303.15 K, 101.33 kPa, x2 = 0.369 | 0.438
303.15 K, 101.33 kPa, x2 = 0.5069 | 0.423
303.15 K, 101.33 kPa, x2 = 0.5644 | 0.416
303.15 K, 101.33 kPa, x2 = 0.6459 | 0.407
303.15 K, 101.33 kPa, x2 = 0.7393 | 0.397
303.15 K, 101.33 kPa, x2 = 0.799 | 0.391
303.15 K, 101.33 kPa, x2 = 0.9128 | 0.379
312.75 K, 100 kPa, x1 = 0.2 | 0.3426
313.15 K, 101 kPa, x2 = 0.2 | 0.407
313.15 K, 101 kPa, x2 = 0.4 | 0.387
313.15 K, 101 kPa, x2 = 0.6 | 0.368
313.15 K, 101 kPa, x2 = 0.8 | 0.35
313.15 K, 101.33 kPa, x2 = 0.05003 | 0.426
313.15 K, 101.33 kPa, x2 = 0.09664 | 0.421
313.15 K, 101.33 kPa, x2 = 0.1716 | 0.413
313.15 K, 101.33 kPa, x2 = 0.212 | 0.409
313.15 K, 101.33 kPa, x2 = 0.2687 | 0.404
313.15 K, 101.33 kPa, x2 = 0.3937 | 0.392
313.15 K, 101.33 kPa, x2 = 0.4963 | 0.382
313.15 K, 101.33 kPa, x2 = 0.596 | 0.372
313.15 K, 101.33 kPa, x2 = 0.6942 | 0.363
313.15 K, 101.33 kPa, x2 = 0.7937 | 0.354
313.15 K, 101.33 kPa, x2 = 0.9085 | 0.343
313.15 K, 101.33 kPa, x2 = 0.9589 | 0.339

CCCCCO + CCCCCCC
Details | viscosity [mPa·s]
293.15 K, 100 kPa, x2 = 0.0249 | 3.71
293.15 K, 100 kPa, x2 = 0.081 | 3.099
293.15 K, 100 kPa, x2 = 0.1471 | 2.521
293.15 K, 100 kPa, x2 = 0.259 | 1.798
293.15 K, 100 kPa, x2 = 0.3365 | 1.429
293.15 K, 100 kPa, x2 = 0.3987 | 1.196
293.15 K, 100 kPa, x2 = 0.4734 | 0.975
293.15 K, 100 kPa, x2 = 0.5627 | 0.776
293.15 K, 100 kPa, x2 = 0.6484 | 0.641
293.15 K, 100 kPa, x2 = 0.734 | 0.544
293.15 K, 100 kPa, x2 = 0.8184 | 0.474
293.15 K, 100 kPa, x2 = 0.9043 | 0.42
293.2 K, 101 kPa, x1 = 0.3 | 0.655
293.8 K, 101 kPa, x1 = 0.5 | 0.924
293.9 K, 101 kPa, x1 = 0.051 | 0.491
298.15 K, 100 kPa, x2 = 0.0249 | 3.218
298.15 K, 100 kPa, x2 = 0.081 | 2.702
298.15 K, 100 kPa, x2 = 0.1471 | 2.211
298.15 K, 100 kPa, x2 = 0.259 | 1.591
298.15 K, 100 kPa, x2 = 0.3365 | 1.277
298.15 K, 100 kPa, x2 = 0.3987 | 1.076
298.15 K, 100 kPa, x2 = 0.4734 | 0.884
298.15 K, 100 kPa, x2 = 0.5627 | 0.712
298.15 K, 100 kPa, x2 = 0.6484 | 0.594
298.15 K, 100 kPa, x2 = 0.734 | 0.507
298.15 K, 100 kPa, x2 = 0.8184 | 0.445
298.15 K, 100 kPa, x2 = 0.9043 | 0.396
298.15 K, 101.33 kPa, x1 = 0.0652 | 0.4117
298.15 K, 101.33 kPa, x1 = 0.1304 | 0.4449
298.15 K, 101.33 kPa, x1 = 0.2489 | 0.5244
298.15 K, 101.33 kPa, x1 = 0.3595 | 0.6427
298.15 K, 101.33 kPa, x1 = 0.4654 | 0.8116
298.15 K, 101.33 kPa, x1 = 0.5682 | 1.041
298.15 K, 101.33 kPa, x1 = 0.6617 | 1.338
298.15 K, 101.33 kPa, x1 = 0.7552 | 1.713
298.15 K, 101.33 kPa, x1 = 0.8805 | 2.418
298.15 K, 101.33 kPa, x1 = 0.9606 | 3.057
303.15 K, 100 kPa, x2 = 0.0249 | 2.804
303.15 K, 100 kPa, x2 = 0.081 | 2.365
303.15 K, 100 kPa, x2 = 0.1471 | 1.945
303.15 K, 100 kPa, x2 = 0.259 | 1.415
303.15 K, 100 kPa, x2 = 0.3365 | 1.145
303.15 K, 100 kPa, x2 = 0.3987 | 0.971
303.15 K, 100 kPa, x2 = 0.4734 | 0.805
303.15 K, 100 kPa, x2 = 0.5627 | 0.655
303.15 K, 100 kPa, x2 = 0.6484 | 0.551
303.15 K, 100 kPa, x2 = 0.734 | 0.474
303.15 K, 100 kPa, x2 = 0.8184 | 0.417
303.15 K, 100 kPa, x2 = 0.9043 | 0.371
308.15 K, 100 kPa, x2 = 0.0249 | 2.453
308.15 K, 100 kPa, x2 = 0.081 | 2.08
308.15 K, 100 kPa, x2 = 0.1471 | 1.72
308.15 K, 100 kPa, x2 = 0.259 | 1.262
308.15 K, 100 kPa, x2 = 0.3365 | 1.03
308.15 K, 100 kPa, x2 = 0.3987 | 0.879
308.15 K, 100 kPa, x2 = 0.4734 | 0.739
308.15 K, 100 kPa, x2 = 0.5627 | 0.604
308.15 K, 100 kPa, x2 = 0.6484 | 0.515
308.15 K, 100 kPa, x2 = 0.734 | 0.438
308.15 K, 100 kPa, x2 = 0.8184 | 0.39
308.15 K, 100 kPa, x2 = 0.9043 | 0.349
308.15 K, 101.33 kPa, x1 = 0.0652 | 0.368
308.15 K, 101.33 kPa, x1 = 0.1304 | 0.3956
308.15 K, 101.33 kPa, x1 = 0.2489 | 0.4627
308.15 K, 101.33 kPa, x1 = 0.3595 | 0.5523
308.15 K, 101.33 kPa, x1 = 0.4654 | 0.6821
308.15 K, 101.33 kPa, x1 = 0.5682 | 0.841
308.15 K, 101.33 kPa, x1 = 0.6617 | 1.062
308.15 K, 101.33 kPa, x1 = 0.7552 | 1.353
308.15 K, 101.33 kPa, x1 = 0.8805 | 1.931
308.15 K, 101.33 kPa, x1 = 0.9606 | 2.382
313.15 K, 100 kPa, x2 = 0.0249 | 2.155
313.15 K, 100 kPa, x2 = 0.081 | 1.836
313.15 K, 100 kPa, x2 = 0.1471 | 1.526
313.15 K, 100 kPa, x2 = 0.259 | 1.132
313.15 K, 100 kPa, x2 = 0.3365 | 0.936
313.15 K, 100 kPa, x2 = 0.3987 | 0.798
313.15 K, 100 kPa, x2 = 0.4734 | 0.674
313.15 K, 100 kPa, x2 = 0.5627 | 0.557
313.15 K, 100 kPa, x2 = 0.6484 | 0.485
313.15 K, 100 kPa, x2 = 0.734 | 0.414
313.15 K, 100 kPa, x2 = 0.8184 | 0.366
313.15 K, 100 kPa, x2 = 0.9043 | 0.327

— the CheMixHub viscosity set
